From ChEMBL document CHEMBL1154103, “Bioactive conformation analysis of cyclic imides as protoporphyrinogen oxidase inhibitor by combining DFT calculations, QSAR and molecular dynamic simulations” (Bioorg Med Chem, 2009) come the findings set out here.

A word on the Ki: it is a dissociation constant, usually derived from enzyme kinetics or from competition with a known ligand. A low value points to higher affinity.

For the assay, the target named is T1, Protoporphyrinogen oxidase (Bacillus subtilis (strain 168), UniProt P32397).
T1 sequence (P32397 whole entry): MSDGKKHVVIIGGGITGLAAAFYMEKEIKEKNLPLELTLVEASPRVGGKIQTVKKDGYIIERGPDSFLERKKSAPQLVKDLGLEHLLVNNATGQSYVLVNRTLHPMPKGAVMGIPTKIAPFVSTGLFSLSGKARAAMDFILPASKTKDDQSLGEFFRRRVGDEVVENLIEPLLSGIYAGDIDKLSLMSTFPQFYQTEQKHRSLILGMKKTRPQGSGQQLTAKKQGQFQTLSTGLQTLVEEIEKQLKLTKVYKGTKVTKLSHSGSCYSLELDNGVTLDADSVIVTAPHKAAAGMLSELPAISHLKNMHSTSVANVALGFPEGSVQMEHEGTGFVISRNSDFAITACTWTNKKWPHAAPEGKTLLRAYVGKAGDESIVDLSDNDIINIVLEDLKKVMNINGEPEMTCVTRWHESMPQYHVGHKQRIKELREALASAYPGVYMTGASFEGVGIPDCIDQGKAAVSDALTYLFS
In words: Inhibition of Bacillus subtilis Protoporphyrinogen oxidase by capillary electrophoresis.
`CCOC(=O)C(CC)N1C(=O)COc2cc(F)c(N3C(=O)C4=C(CCCC4)C3=O)cc21` (stereo not given) had an inhibition constant Ki of 44.7 nM.

In the case of `N#CCN1C(=O)COc2cc(F)c(N3C(=O)c4ccccc4C3=O)cc21`, affinity was put at a Ki of 1020 nM.

With `O=C(NC(=O)c1c(F)cccc1Cl)Nc1cc(N2C(=O)C3=C(CCCC3)C2=O)c(F)cc1Cl`, the Ki was 8.32 nM. Against the preceding compound, the Ki is about 120-fold lower.

For the compound `O=C(NC(=O)c1cccc(OC(F)(F)F)c1)Nc1cc(N2C(=O)C3=C(CCCC3)C2=O)c(F)cc1Cl`, the Ki was 33.9 nM. This Ki is about 4.1-fold higher than that of the compound before.

Take `O=C(Nc1ccc(Cl)cc1)Nc1cc(N2C(=O)C3=C(CCCC3)C2=O)c(F)cc1Cl`: the inhibition constant (Ki) is 28.2 nM.

In turn, `COC(=O)CN1C(=O)C(C)Oc2cc(F)c(N3C(=O)C4=C(CCCC4)C3=O)cc21` (stereo not given) showed a Ki of 39.8 nM. This Ki and that of the compound before are within 1.5-fold of each other.

`O=C(NC(=O)c1c(Cl)cccc1Cl)Nc1cc(N2C(=O)C3=C(CCCC3)C2=O)c(F)cc1Cl` had a Ki of 12.9 nM.

For the compound `CNC(=O)Nc1cc(N2C(=O)C3=C(CCCC3)C2=O)c(F)cc1Cl`, affinity was put at a Ki of 372 nM.

As for `CCOC(=O)C(C)N1C(=O)C(C)Oc2cc(F)c(N3C(=O)C4=C(CCCC4)C3=O)cc21` (stereo not given), the Ki was 110 nM.

For `CC(C)(CCl)C(=O)Nc1cc(N2C(=O)C3=C(CCCC3)C2=O)c(F)cc1Cl`, the inhibitory constant (Ki) was 871 nM. This Ki lies about 7.9-fold higher than the previous one.

`CCOC(=O)C(C)N1C(=O)COc2cc(F)c(N3C(=O)C4=C(CCCC4)C3=O)cc21` (stereo not given): the Ki is 120 nM. This Ki is about 7.3-fold lower than that of the compound before.

For the compound `C#CCN1C(=O)C(C)Oc2cc(F)c(N3C(=O)c4ccc(C)cc4C3=O)cc21` (stereo not given), affinity was put at a Ki of 4790 nM.

For the compound `COC(=O)C(C)N1C(=O)C(C)Oc2cc(F)c(N3C(=O)C4=C(CCCC4)C3=O)cc21` (stereo not given), the Ki was 49 nM.

As to `CCC(C(=O)OC)N1C(=O)COc2cc(F)c(N3C(=O)C4=C(CCCC4)C3=O)cc21` (stereo not given), the affinity, expressed as Ki, was 8.13 nM. This Ki lies about 6-fold lower than the previous one.

In turn, `O=C(NC(=O)c1ccccc1)Nc1cc(N2C(=O)C3=C(CCCC3)C2=O)ccc1Cl` had a Ki of 6170 nM.

`O=C(NC(=O)c1ccc(Cl)cc1Cl)Nc1cc(N2C(=O)C3=C(CCCC3)C2=O)c(F)cc1Cl`: the inhibition constant (Ki) was 26.9 nM. This Ki lies about 230-fold lower than the previous one.

As for `C#CCN1C(=O)COc2cc(F)c(N3C(=O)c4ccccc4C3=O)cc21`, the inhibition constant Ki was 3310 nM. This Ki is about 120-fold higher than that of the compound before.

`CCCN(CCC)C(=O)Nc1cc(N2C(=O)C3=C(CCCC3)C2=O)ccc1Cl` gave a Ki of 288 nM.

Compound `CCOC(=O)CN1C(=O)C(C)Oc2cc(F)c(N3C(=O)C4=C(CCCC4)C3=O)cc21` (stereo not given) gave a Ki of 60.3 nM.

The compound `O=C(Nc1cccc(C(F)(F)F)c1)Nc1cc(N2C(=O)C3=C(CCCC3)C2=O)c(F)cc1Cl` gave a Ki of 25.1 nM.

Regarding `CCOC(=O)C(c1ccccc1)N1C(=O)C(C)Oc2cc(F)c(N3C(=O)C4=C(CCCC4)C3=O)cc21` (stereo not given), the affinity corresponds to a Ki of 91.2 nM. This Ki is about 3.6-fold higher than that of the compound before.

Consider `CC(C)N(C(=O)Nc1cc(N2C(=O)C3=C(CCCC3)C2=O)c(F)cc1Cl)C(C)C`, for which the affinity corresponds to a Ki of 229 nM. Compared with the last compound, the Ki is about 2.5-fold higher.

Regarding `C#CCN1C(=O)COc2cc(F)c(N3C(=O)c4ccc(C)cc4C3=O)cc21`, affinity was put at a Ki of 2820 nM.

Turning to `O=C(NC(=O)c1ccccc1)Nc1cc(N2C(=O)C3=C(CCCC3)C2=O)c(F)cc1Cl`, the Ki is 89.1 nM.

Compound `C#CCN1C(=O)C(C)Oc2cc(F)c(N3C(=O)c4cccc(F)c4C3=O)cc21` (stereo not given) had a Ki of 5010 nM.
